# Measured values reported in patent publication US11999697B2, “Methods and compositions for inhibition of dihydroorotate dehydrogenase” (OHIO STATE INNOVATION FOUNDATION, priority 2018, dated 2024).
# How the values were obtained:
# Format in all cases: cell-based
# [1] = tested on: THP1; experiment: MTS cell proliferation assay, THP1; details: Homo sapiens, THP-1, 96 hours
# Description: (§1) Triplicate wells were set up for each condition.
# (§2) The assays were carried out in a blinded fashion.
# [2] = tested on: HL-60; experiment: MTS cell proliferation assay, HL-60; details: Homo sapiens, 96 hours
# Description: as §1, §2
# [3] = tested on: primary human AML cells; experiment: Cytospin slides and Wright-Giemsa staining for differentiation; details: 1 μM, 14 days
# Description: Cytospin slides and Wright-Giemsa staining for differentiation: Primary AML cells were solubilized from the methocult in the CFU assays. 150-300K cells were immobilized onto microscope slides and stained with Wright-Giemsa stain. Differentiated myeloid cells were recognized by the typical morphological changes associated with early neutrophil differentiation including a characteristic multi-lobed or kidney bean shaped nucleus.
# The primary AML cells following treatment with Cpd3 were analyzed by Wright-Giemsa stain. FIGS. 4A-4C show representative micrographs of primary human AML cells treated a representative disclosed compound, Cpd3, compared to a reference compound, brequinar, or vehicle treatment using methods as described herein below. Briefly, primary AML cells were treated with vehicle (DMSO), Cpd3 (1 μM) or brequinar (BQR, 1 μM) and plated in semi-solid methylcellulose-based media for 14 days. Cells were recovered from the methylcellulose and immobilized on glass slides and stained with a Wright-Giemsa stain (the more differentiated myeloid cells are indicated by the red arrows). The images are shown for vehicle treatment (FIG. 4A); Cpd3 treatment (FIG. 4B); and brequinar treatment (FIG. 4C). The primary human AML cells are from a representative patient sample. […]
# [4] = tested on: p53 signaling pathway in MOLM13, MV4-11, OCI-AML3; experiment: Immunoblots for MDM2, p53, p-γH2AX, p21 in AML cell lines; details: 1 μM, 24 hours
# Description: FIGS. 6A-6F show representative data and analysis for the effect of a representative disclosed compound, Cpd3, on the inhibition of MDM2. FIGS. 6A-6C show representative immunoblots for cells following vehicle treatment, treatment with a representative disclosed compound, Cpd3, or treatment with a reference compound, brequinar (indicated as “BQR” in the figures) using methods as described herein above. Briefly, AML cell lines were treated with vehicle, 1 μM Cpd3 or 1 μM BQR for 24 hours. Lysates were prepared and immunoblots were performed for MDM2, p53, p-γH2AX, p21 and GAPDH used as loading controls. […] That is, Cpd3 promotes a p53 response evident by both upregulation of the downstream target p21, with compensatory induction of MDM2. […] These preliminary data validate that Cpd3 is a potent inhibitor of DHODH in AML, and further preclinical development of Cpd3 is warranted.
# [5] = tested on: primary human AML cells; experiment: CyTOF analysis of neutrophil differentiation; details: 0.5 μM, 7 days, cytokine supplemented media
# Description: CyTOF analysis: primary human AML cells were treated with vehicle (DMSO) or Cpd3 (0.5 μM) in the presence of cytokine supplemented media for 7 days. Cells were then incubated with 5-Iodo-2′-deoxyuridine for 10 minutes at 37° C. and fixed with Smart Tube proteomic stabilizer. 1-2×10^6 cells were washed twice with cell staining media (CSM; 0.5% BSA, 0.02% sodium azide in PBS), permeablized with cold, 0.01% saponin in PBS, barcoded using the Cell-ID 20-Plex Pd Barcoding Kit (Fluidigm), incubated for 30 minutes at room temperature, washed again 3× with CSM. Cells were then incubated with Fc blocking reagent (10 minutes at room temperature; RT) after which a cocktail of extracellular antibodies (Table 14 below) were added (50 minutes at RT, with shaking). Cells were washed with CSM, fixed for 15 minutes (10% CSM, 1.5% PFA, in PBS), and washed with CSM. Membrane permeablization was performed with ice cold methanol incubated for 20 minutes at −20° C., followed by washing 1× with PBS and 2× with CSM, and incubation with the intracellular antibody cocktail (Table 10) (50 minutes at RT, with shaking). Cells were then rinsed 2× in CSM, 1× in PBS, and incubated in PBS containing 1.5% PFA and 125 nM iridium intercalator (pentamethylcyclopentadienyl-Ir(III)-dipyridophenazine) (Fluidigm) at 4° C. […]
smiles,measurement,setting,value
"CCOc1ccc(-c2ccc(-c3cc(C(=O)O)c4cc(F)ccc4n3)cc2)cc1 [Cpd3, 2-(4′-ethoxy-[1,1′-biphenyl]-4-yl)-6-fluoroquinoline-4-carboxylic acid]",IC50,[1],1.1 µM
same,IC50,[2],0.28 µM
same,differentiation by Wright-Giemsa stain,[3],induces differentiation in primary human AML cells
same,induction of p53 signaling pathway and DNA damage,[4],induces the p53 signaling pathway and DNA damage
same,induction of neutrophil differentiation,[5],significant induction of neutrophil differentiation
